# Tested on: Plasmodium berghei (Pb-Luc) exoerythrocytic-stage parasites
# Test: microbe, parasite or virus in culture
# Details: read-out: Inhibition% @ 50 uM rep1
row,SMILES,inhibition at 50 µM
1,CCOc1ccccc1CN1CCc2nc3cc(C(C)(C)C)nn3c(O)c2C1 [MMV396595],99%
2,Cc1sc(NC(=O)c2ccccc2)c(C(c2cccs2)N2CCN(c3ccccc3)CC2)c1C (centres unmarked) [MMV396652],99%
3,COc1ccc(-c2cc3c(SCC(=O)Nc4cc(C(F)(F)F)ccc4Cl)nccn3n2)cc1 [MMV396679],102%
4,Cc1ccc(-c2cc3c(SCC(=O)Nc4cc(C(F)(F)F)ccc4Cl)nccn3n2)cc1 [MMV396680],92%
5,N#Cc1nc(Cc2cccc3ccccc23)oc1N1CCN(C(c2ccccc2)c2ccccc2)CC1 [MMV396726],97%
6,CCOC(=O)c1cnc2c(CC)cccc2c1O [MMV498479],103%

# Same assay, conditions: read-out: Inhibition% @ 50 uM rep2
row,SMILES,inhibition at 50 µM
1,CCOc1ccccc1CN1CCc2nc3cc(C(C)(C)C)nn3c(O)c2C1 [MMV396595],100%
2,Cc1sc(NC(=O)c2ccccc2)c(C(c2cccs2)N2CCN(c3ccccc3)CC2)c1C (centres unmarked) [MMV396652],99%
3,COc1ccc(-c2cc3c(SCC(=O)Nc4cc(C(F)(F)F)ccc4Cl)nccn3n2)cc1 [MMV396679],103%
4,Cc1ccc(-c2cc3c(SCC(=O)Nc4cc(C(F)(F)F)ccc4Cl)nccn3n2)cc1 [MMV396680],85%
5,N#Cc1nc(Cc2cccc3ccccc23)oc1N1CCN(C(c2ccccc2)c2ccccc2)CC1 [MMV396726],92%
6,CCOC(=O)c1cnc2c(CC)cccc2c1O [MMV498479],103%

# Same assay, conditions: read-out: PbLuc IC50, dose response, 1/3 dilutions, max conc. 10 or 50 uM, unit inferred
row,SMILES,IC50
1,CCOc1ccccc1CN1CCc2nc3cc(C(C)(C)C)nn3c(O)c2C1 [MMV396595],0.569 µM
2,Cc1sc(NC(=O)c2ccccc2)c(C(c2cccs2)N2CCN(c3ccccc3)CC2)c1C (centres unmarked) [MMV396652],4.07 µM
3,COc1ccc(-c2cc3c(SCC(=O)Nc4cc(C(F)(F)F)ccc4Cl)nccn3n2)cc1 [MMV396679],2.18 µM
4,Cc1ccc(-c2cc3c(SCC(=O)Nc4cc(C(F)(F)F)ccc4Cl)nccn3n2)cc1 [MMV396680],8.63 µM
5,N#Cc1nc(Cc2cccc3ccccc23)oc1N1CCN(C(c2ccccc2)c2ccccc2)CC1 [MMV396726],2.68 µM
6,CCOC(=O)c1cnc2c(CC)cccc2c1O [MMV498479],1.67 µM

# Same assay, conditions: read-out: PbLuc max inhibition (%) @ 50 uM
row,SMILES,inhibition at 50 µM
1,CCOc1ccccc1CN1CCc2nc3cc(C(C)(C)C)nn3c(O)c2C1 [MMV396595],106%
2,Cc1sc(NC(=O)c2ccccc2)c(C(c2cccs2)N2CCN(c3ccccc3)CC2)c1C (centres unmarked) [MMV396652],97%
3,COc1ccc(-c2cc3c(SCC(=O)Nc4cc(C(F)(F)F)ccc4Cl)nccn3n2)cc1 [MMV396679],105%
4,Cc1ccc(-c2cc3c(SCC(=O)Nc4cc(C(F)(F)F)ccc4Cl)nccn3n2)cc1 [MMV396680],95%
5,N#Cc1nc(Cc2cccc3ccccc23)oc1N1CCN(C(c2ccccc2)c2ccccc2)CC1 [MMV396726],100%
6,CCOC(=O)c1cnc2c(CC)cccc2c1O [MMV498479],106%

# Target: QuantiLum Recombinant Luciferase (Photinus pyralis, UniProt P08659)
# Test: Bioluminescence quantification of compound luciferase inhibition
# Details: not given
# QuantiLum Recombinant Luciferase, sequence (P08659 whole entry): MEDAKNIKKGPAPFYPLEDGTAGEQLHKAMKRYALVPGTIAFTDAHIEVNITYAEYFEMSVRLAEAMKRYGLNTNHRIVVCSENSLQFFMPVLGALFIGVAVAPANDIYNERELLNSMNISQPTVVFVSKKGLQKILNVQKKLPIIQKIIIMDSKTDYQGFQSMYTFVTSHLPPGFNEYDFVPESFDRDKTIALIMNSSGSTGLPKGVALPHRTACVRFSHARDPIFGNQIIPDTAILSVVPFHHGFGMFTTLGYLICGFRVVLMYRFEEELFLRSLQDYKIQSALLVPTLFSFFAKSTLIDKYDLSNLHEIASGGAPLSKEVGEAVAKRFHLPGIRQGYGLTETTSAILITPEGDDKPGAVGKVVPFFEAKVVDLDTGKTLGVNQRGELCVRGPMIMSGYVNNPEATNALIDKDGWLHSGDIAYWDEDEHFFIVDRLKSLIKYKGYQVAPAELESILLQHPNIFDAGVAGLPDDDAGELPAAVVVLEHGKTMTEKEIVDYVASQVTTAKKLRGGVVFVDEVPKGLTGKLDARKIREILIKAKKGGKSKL
row,SMILES,IC50
1,CCOc1ccccc1CN1CCc2nc3cc(C(C)(C)C)nn3c(O)c2C1 [MMV396595],> 50 µM
2,Cc1sc(NC(=O)c2ccccc2)c(C(c2cccs2)N2CCN(c3ccccc3)CC2)c1C (centres unmarked) [MMV396652],> 50 µM
3,COc1ccc(-c2cc3c(SCC(=O)Nc4cc(C(F)(F)F)ccc4Cl)nccn3n2)cc1 [MMV396679],> 50 µM
4,Cc1ccc(-c2cc3c(SCC(=O)Nc4cc(C(F)(F)F)ccc4Cl)nccn3n2)cc1 [MMV396680],> 50 µM
5,N#Cc1nc(Cc2cccc3ccccc23)oc1N1CCN(C(c2ccccc2)c2ccccc2)CC1 [MMV396726],> 50 µM
6,CCOC(=O)c1cnc2c(CC)cccc2c1O [MMV498479],> 50 µM

# Same assay, conditions: read-out: LucInhib max inhibition
row,SMILES,Emax
1,CCOc1ccccc1CN1CCc2nc3cc(C(C)(C)C)nn3c(O)c2C1 [MMV396595],50%
2,Cc1sc(NC(=O)c2ccccc2)c(C(c2cccs2)N2CCN(c3ccccc3)CC2)c1C (centres unmarked) [MMV396652],33%
3,COc1ccc(-c2cc3c(SCC(=O)Nc4cc(C(F)(F)F)ccc4Cl)nccn3n2)cc1 [MMV396679],10%
4,Cc1ccc(-c2cc3c(SCC(=O)Nc4cc(C(F)(F)F)ccc4Cl)nccn3n2)cc1 [MMV396680],21%
5,N#Cc1nc(Cc2cccc3ccccc23)oc1N1CCN(C(c2ccccc2)c2ccccc2)CC1 [MMV396726],23%
6,CCOC(=O)c1cnc2c(CC)cccc2c1O [MMV498479],19%

# Tested on: HepG2-A16-CD81EGFP cells
# Test: cells
# Details: Homo sapiens, HepG2, read-out: HepG2 Tox% @ 50 uM rep1
row,SMILES,cytotoxicity at 50 µM
1,CCOc1ccccc1CN1CCc2nc3cc(C(C)(C)C)nn3c(O)c2C1 [MMV396595],0.78%
2,Cc1sc(NC(=O)c2ccccc2)c(C(c2cccs2)N2CCN(c3ccccc3)CC2)c1C (centres unmarked) [MMV396652],14%
3,COc1ccc(-c2cc3c(SCC(=O)Nc4cc(C(F)(F)F)ccc4Cl)nccn3n2)cc1 [MMV396679],7%
4,Cc1ccc(-c2cc3c(SCC(=O)Nc4cc(C(F)(F)F)ccc4Cl)nccn3n2)cc1 [MMV396680],-4%
5,N#Cc1nc(Cc2cccc3ccccc23)oc1N1CCN(C(c2ccccc2)c2ccccc2)CC1 [MMV396726],-11%
6,CCOC(=O)c1cnc2c(CC)cccc2c1O [MMV498479],-10%

# Same assay, conditions: Homo sapiens, HepG2, read-out: HepG2 Tox% @ 50 uM rep2
row,SMILES,cytotoxicity at 50 µM
1,COc1ccc(-c2cc3c(SCC(=O)Nc4cc(C(F)(F)F)ccc4Cl)nccn3n2)cc1 [MMV396679],18%
2,Cc1ccc(-c2cc3c(SCC(=O)Nc4cc(C(F)(F)F)ccc4Cl)nccn3n2)cc1 [MMV396680],2.13%

# Same assay, conditions: Homo sapiens, HepG2, read-out: Tox IC50
row,SMILES,IC50
1,CCOc1ccccc1CN1CCc2nc3cc(C(C)(C)C)nn3c(O)c2C1 [MMV396595],> 50 µM
2,Cc1sc(NC(=O)c2ccccc2)c(C(c2cccs2)N2CCN(c3ccccc3)CC2)c1C (centres unmarked) [MMV396652],> 50 µM
3,COc1ccc(-c2cc3c(SCC(=O)Nc4cc(C(F)(F)F)ccc4Cl)nccn3n2)cc1 [MMV396679],> 50 µM
4,Cc1ccc(-c2cc3c(SCC(=O)Nc4cc(C(F)(F)F)ccc4Cl)nccn3n2)cc1 [MMV396680],> 50 µM
5,N#Cc1nc(Cc2cccc3ccccc23)oc1N1CCN(C(c2ccccc2)c2ccccc2)CC1 [MMV396726],> 50 µM
6,CCOC(=O)c1cnc2c(CC)cccc2c1O [MMV498479],> 50 µM

# Same assay, conditions: Homo sapiens, HepG2, read-out: Tox max inhibition (%) @ 50 uM
row,SMILES,inhibition at 50 µM
1,CCOc1ccccc1CN1CCc2nc3cc(C(C)(C)C)nn3c(O)c2C1 [MMV396595],8%
2,Cc1sc(NC(=O)c2ccccc2)c(C(c2cccs2)N2CCN(c3ccccc3)CC2)c1C (centres unmarked) [MMV396652],28%
3,COc1ccc(-c2cc3c(SCC(=O)Nc4cc(C(F)(F)F)ccc4Cl)nccn3n2)cc1 [MMV396679],14%
4,Cc1ccc(-c2cc3c(SCC(=O)Nc4cc(C(F)(F)F)ccc4Cl)nccn3n2)cc1 [MMV396680],11%
5,N#Cc1nc(Cc2cccc3ccccc23)oc1N1CCN(C(c2ccccc2)c2ccccc2)CC1 [MMV396726],-1%
6,CCOC(=O)c1cnc2c(CC)cccc2c1O [MMV498479],1%
